Laboratory results published in patent US20240360145A1, “PYRIMIDINE-2,4-DIAMINE DERIVATIVES AS WELL AS PREPARATION METHOD THEREFOR AND USE THEREOF” (LISEN THERAPEUTICS, INC., priority 2022, published 2024).

Experiments:
DMS114 cells = assay: Cell viability IC50 (CCK-8), small cell lung cancer cell line DMS114; type: cell-based; conditions: Homo sapiens, DMS-114; DMS114, CCK-8
Description: Small cell lung cancer cell lines DMS114, NCI-H1688, NCI-H82, NCI-H146, and NCI-H446 cells were cultured in RPMI-1640 medium containing 10% fetal bovine serum and 1% penicillin-streptomycin. All the cells were cultured in a constant temperature incubator containing 5% CO2 at 37° C.
Small cell lung cancer is a highly heterogeneous malignant tumor, and its clinical treatment is mainly based on traditional chemotherapy (mainly platinum medicaments and etoposide). In order to study the anti-tumor activity of the compounds of the present disclosure in small cell lung cancer, the CCK-8 method was used to investigate the cell viability IC50 of compound 8 for five small cell lung cancer cell lines.

PE039 primary cells = assay: Cell viability IC50 (CCK-8), primary cells PE039 from small cell lung cancer pleural effusion; type: cell-based; conditions: PE039, CCK-8
Description: (1) The pleural effusion was poured into a 15 mL or 50 mL of sterilized centrifuge tube for centrifugation. Centrifugation conditions: 800 to 1000 rpm, 5 min.
(2) The precipitate was resuspended and washed for 2 to 3 times with PBS.
(3) The cell precipitate was resuspended with complete culture medium (α-MEM medium containing 10% fetal bovine serum and 2% penicillin-streptomycin), and the flocculent matter in the pleural effusion was removed using a sterilized cell sieve.
(4) The red blood cells in the pleural effusion were removed with lymphocyte separation fluid, and the tumor cells and lymphocyte components were collected. The number of tumor cells was observed under a microscope, and the cells were inoculated.
(5) After 24 hours, the supernatant was discarded, and fresh culture medium was added for further culture.
(6) The cell growth status was observed, and it was determined based on the cell status whether the medium was required to be continuously changed to remove blood cells. When the cells grew to a density of 80% to 90%, the cells were preserved.
(1) Primary cells from lung cancer pleural effusion within 5 generations were cultured to the logarithmic growth phase. […] After centrifugation at room temperature, the supernatant was discarded, and the cell precipitate was resuspended with fresh complete culture medium. After counting, the cells were placed at room temperature for later use. The cells were inoculated into a 384-well plate at a density of 2000 cells/well with a volume of 40 μl/well. The wells at the outermost circle of the plate were not inoculated with cells, and instead, added with sterile water to reduce evaporation of the culture medium.
(§1) (2) After overnight culture of the cells, the medium was discarded, and a fresh medium containing different concentrations of compounds was added at 200 μl/well. The dilution method of the compound was as follows: first the compound with the highest concentration of 10 μM was prepared, and then the compound was diluted for 3 times in sequence. […] At the same time, a blank control group was set up, in which only an equal volume of culture medium was added without adding cells. Five replicate wells were set up for each group. The cells were placed in the incubator for further culture.
(3) After 72 hours, 8 μl of CCK-8 solution, which was double-diluted with 10 mM PBS, was added to each well, and the cells were shaken and placed in an incubator at 37° C. for further culture for 2 hours.
(4) The light absorbance value at 450 nm was read using a microplate reader, and the IC50 was calculated according to the absorbance value. The calculation method was the same as above. […]

SW620 (colon cancer) = assay: Cell viability IC50 (CellTiter-Glo), SW620; type: cell-based; conditions: Homo sapiens, SW-620, SW620, 72 hours
Description: (§2) The cancer cell lines were cultured to the logarithmic growth phase according to conventional culture methods, and the cells were inoculated into a 384-well plate at a density of 2,000 cells/well in a volume of 40 μl/well. The concentrations of added compounds were: […], 1.67 μM, 0.56 μM, 0.19 μM, 0.062 μM, 0.021 μM, 0.0069 μM, 0.0023 μM, 0.00076 μM, and 0 μM. After 72 hours, cell viability was detected using the CellTiter-Glo™ Detection Kit.

Cal-62 (thyroid cancer) = assay: Cell viability IC50 (CellTiter-Glo), Cal-62; type: cell-based; conditions: Homo sapiens, Cal-62, 72 hours
Description: as §2

Hep3B (liver cancer) = assay: Cell viability IC50 (CellTiter-Glo), Hep3B; type: cell-based; conditions: Homo sapiens, 72 hours
Description: as §2

LN-18 (glioma) = assay: Cell viability IC50 (CellTiter-Glo), LN-18; type: cell-based; conditions: Homo sapiens, LN-18, 72 hours
Description: as §2

[1] = system: MiaPaca-2 (pancreatic cancer); assay: Cell viability IC50 (CellTiter-Glo), MiaPaca-2; type: cell-based; conditions: Homo sapiens, MIA PaCa-2, MiaPaca-2, 72 hours
Description: as §2

[2] = system: primary cells from pleural effusion of patients with small cell lung cancer; assay: Cell viability IC50 (CCK-8), summary over primary cells from pleural effusion of patients with small cell lung cancer; type: cell-based; conditions: Homo sapiens; range over primary cells of patients with small cell lung cancer (Table 4)
Description: (1) Primary cells from lung cancer pleural effusion within 5 generations were cultured to the logarithmic growth phase. When the confluence reached about 90%, the cells were digested with 0.25% trypsin, and complete culture medium was added to collect the cells. After centrifugation at room temperature, the supernatant was discarded, and the cell precipitate was resuspended with fresh complete culture medium. After counting, the cells were placed at room temperature for later use. The cells were inoculated into a 384-well plate at a density of 2000 cells/well with a volume of 40 μl/well. The wells at the outermost circle of the plate were not inoculated with cells, and instead, added with sterile water to reduce evaporation of the culture medium.
as §1, with “Five replicate wells were set up for each group. The cells were placed in the incubator for further culture.” left out
(4) The light absorbance value at 450 nm was read using a microplate reader, and the IC50 was calculated according to the absorbance value. […]

PE043 primary cells = assay: Cell viability IC50 (CCK-8), primary cells PE043 from lung adenocarcinoma pleural effusion resistant to EGFR-TKI; conditions: read-out: cell viability IC50

Molecule `CN1CC2CCC(C1)N2Cc1ccc(Nc2ncc(Cl)c(Nc3ccccc3S(=O)(=O)N(C)C)n2)cc1` [Compound 8, 2-((5-chloro-2-((4-((3-methyl-3,8-diazabicyclo[3.2.1]octan-8-yl)methyl)phenyl)amino)pyrimidin-4-yl)amino)-N,N-dimethylbenzenesulfonamide] has an IC50 (DMS114 cells) of 6.03 nM, an IC50 (PE039 primary cells) of 51.5 nM and an IC50 (SW620 (colon cancer)) of 101 nM. It also gave an IC50 (Cal-62 (thyroid cancer)) of 21.9 nM, an IC50 (Hep3B (liver cancer)) of 185 nM and an IC50 (LN-18 (glioma)) of 7.8 nM. The IC50 [1] was 13.2 nM, the IC50 [2] was 2.7 to 59.9 nM and the IC50 (PE043 primary cells) was 34.6 nM.
